What was measured:
ABUTH [1] = test: Pre-emergence herbicidal action against ABUTH; format: in vivo, Abutilon theophrasti
How it was run: (§1)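 Herbicidal effect was assessed 3 weeks after treatment by visual comparison with untreated controls, 100% denoting dead plants. Aqueous WP or EC preparations had been applied at 600 to 800 l/ha with 0.2% wetting agent to the soil covering freshly sown seeds.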

ALOMY [2] = test: Pre-emergence herbicidal action against ALOMY; format: in vivo, Alopecurus myosuroides; details: pre-emergence
How it was run: as §1

AMARE [3] = test: Pre-emergence herbicidal action against AMARE; format: in vivo, Amaranthus retroflexus
How it was run: as §1

AVEFA [4] = test: Pre-emergence herbicidal action against AVEFA; format: in vivo, Avena fatua; details: Avena fatua, 504 h; 80 g/ha, pre-emergence
How it was run: as §1

ECHCG [5] = test: Pre-emergence herbicidal action against ECHCG; format: in vivo, Echinochloa crus-galli
How it was run: as §1

MATIN [6] = test: Pre-emergence herbicidal action against MATIN; format: in vivo, Matricaria inodora; details: Tripleurospermum inodorum, 504 h, dosage 80 g/ha
How it was run: as §1

SETVI [7] = test: Pre-emergence herbicidal action against SETVI; format: in vivo, Setaria viridis
How it was run: as §1

VERPE = test: Pre-emergence herbicidal action against VERPE; format: in vivo, Veronica persica; details: Veronica persica, 504 h, dosage 80 g/ha
How it was run: as §1

VIOTR [8] = test: Pre-emergence herbicidal action against VIOTR; format: in vivo, Viola tricolor
How it was run: as §1

ABUTH [9] = test: Post-emergence herbicidal action against ABUTH; format: in vivo, Abutilon theophrasti; details: visual assessment about 3 weeks after treatment vs untreated controls
How it was run: (§2)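 Herbicidal effect was scored visually in percent after about 3 weeks in the greenhouse. Plants had been raised in sandy loam and treated post-emergence at the one-leaf stage with formulated compound at 600 to 800 l/ha water plus 0.2% wetting agent.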

ALOMY [10] = test: Post-emergence herbicidal action against ALOMY; format: in vivo, Alopecurus myosuroides; details: visual assessment about 3 weeks after treatment vs untreated controls
How it was run: as §2

AMARE [11] = test: Post-emergence herbicidal action against AMARE; format: in vivo, Amaranthus retroflexus; details: 20 g/ha, visual assessment about 3 weeks after treatment, 100% = plants have died, 0% = like control plants
How it was run: as §2

AVEFA [12] = test: Post-emergence herbicidal action against AVEFA; format: in vivo, Avena fatua; details: 20 g/ha, visual assessment about 3 weeks after treatment, 100% = plants have died, 0% = like control plants
How it was run: as §2

ECHCG [13] = test: Post-emergence herbicidal action against ECHCG; format: in vivo, Echinochloa crus-galli
How it was run: as §2

LOLRI = test: Post-emergence herbicidal action against LOLRI; format: in vivo, Lolium rigidum; details: dosage 20 g/ha
Method: Seeds of monocotyledonous and dicotyledonous weed and crop plants are laid out in sandy loam soil in wood-fiber pots, covered with soil and cultivated in a greenhouse under good growth conditions. 2 to 3 weeks after sowing, the test plants are treated at the one-leaf stage. The compounds of the invention, formulated in the form of wettable powders (WP) or as emulsion concentrates (EC), are then sprayed onto the green parts of the plants in the form of an aqueous suspension or emulsion at a water application rate equivalent to 600 to 800 l/ha, with addition of 0.2% wetting agent. After the test plants have been left to stand in the greenhouse under optimal growth conditions for about 3 weeks, the action of the preparations is assessed visually in comparison to untreated controls (herbicidal action in percent (%): 100% activity=the plants have died, 0% activity=like control plants). […] The tables below illustrate, in an illustrative manner, the post-emergence herbicidal action of the compounds of the invention, the herbicidal activity being stated in percent.

SETVI [14] = test: Post-emergence herbicidal action against SETVI; format: in vivo, Setaria viridis
How it was run: as §2

VIOTR [15] = test: Post-emergence herbicidal action against VIOTR; format: in vivo, Viola tricolor
How it was run: as §2

POLCO = test: Pre-emergence herbicidal action against POLCO; format: in vivo, Polygonum convolvulus; details: dosage 80 g/ha
How it was run: as §1

STEME [16] = test: Pre-emergence herbicidal action against STEME; format: in vivo, Stellaria media
How it was run: as §1

DIGSA [17] = test: Pre-emergence herbicidal action against DIGSA; format: in vivo, Digitaria sanguinalis
How it was run: as §1

MATIN [18] = test: Post-emergence herbicidal action against MATIN; format: in vivo, Matricaria inodora; details: dosage 20 g/ha
How it was run: as §2

PHBPU = test: Post-emergence herbicidal action against PHBPU; format: in vivo, Pharbitis purpurea; details: dosage 20 g/ha
How it was run: as §2

STEME [19] = test: Post-emergence herbicidal action against STEME; format: in vivo, Stellaria media
How it was run: as §2

DIGSA [20] = test: Post-emergence herbicidal action against DIGSA; format: in vivo, Digitaria sanguinalis
How it was run: as §2

[21] = Setaria viridis, 504 h, dosage 20 g/ha
[22] = 80 g/ha, scored visually after 3 weeks vs untreated controls (100% = plants have died, 0% = like control plants)

## Cn1nnnc1NC(=O)c1ccc(Cl)c(C(=O)NC2CC2)c1Br [Example 1-351]
ABUTH [1]; Abutilon theophrasti, 504 h, 80 g/ha, scored visually after 3 weeks vs untreated controls (100% = plants have died, 0% = like control plants)
  pest or weed control at 80 g/ha: 100%
ALOMY [2]; Alopecurus myosuroides, 504 h, 80 g/ha, scored visually after 3 weeks vs untreated controls (100% = plants have died, 0% = like control plants)
  pest or weed control at 80 g/ha: 100%
ALOMY [2]; Alopecurus myosuroides, 504 h, 20 g/ha, scored visually after 3 weeks, 100% = plants have died, 0% = like control plants
  pest or weed control at 20 g/ha: 100%
AMARE [3]; Amaranthus retroflexus, 504 h, 20 g/ha, scored visually after 3 weeks vs untreated controls, 100% = plants have died, 0% = like control plants
  pest or weed control at 20 g/ha: 100%
AMARE [3]; Amaranthus retroflexus, 504 h, 80 g/ha, scored visually after 3 weeks vs untreated controls, 100% = plants have died, 0% = like control plants
  pest or weed control at 80 g/ha: 100%
AVEFA [4]
  pest or weed control at 80 g/ha: 100%
ECHCG [5]; Echinochloa crus-galli, 504 h, 80 g/ha
  pest or weed control at 80 g/ha: 100%
MATIN [6]
  pest or weed control at 80 g/ha: 100%
SETVI [7]; [21]
  pest or weed control at 20 g/ha: 100%
SETVI [7]; Setaria viridis, 504 h, dosage 80 g/ha
  pest or weed control at 80 g/ha: 100%
VERPE
  pest or weed control at 80 g/ha: 90%
VIOTR [8]; Viola tricolor, 504 h, dosage 20 g/ha
  pest or weed control at 20 g/ha: 100%
VIOTR [8]; Viola tricolor, 504 h, dosage 80 g/ha
  pest or weed control at 80 g/ha: 100%
ABUTH [9]; Abutilon theophrasti, 504 h, dosage 20 g/ha
  pest or weed control at 20 g/ha: 80%
ALOMY [10]; Alopecurus myosuroides, 504 h, dosage 5 g/ha
  pest or weed control at 5 g/ha: 90%
ALOMY [10]; Alopecurus myosuroides, 504 h, dosage 20 g/ha
  pest or weed control at 20 g/ha: 90%
AMARE [11]; Amaranthus retroflexus, 504 h
  pest or weed control at 20 g/ha: 100%
AVEFA [12]; Avena fatua, 504 h
  pest or weed control at 20 g/ha: 80%
ECHCG [13]; Echinochloa crus-galli, 504 h, dosage 20 g/ha
  pest or weed control at 20 g/ha: 100%
LOLRI; Lolium rigidum, 504 h
  pest or weed control at 20 g/ha: 80%
SETVI [14]; [21]
  pest or weed control at 20 g/ha: 100%
VIOTR [15]; Viola tricolor, 504 h, 20 g/ha
  pest or weed control at 20 g/ha: 80%

## CCNC(=O)c1c(C(F)F)ccc(C(=O)Nc2nnco2)c1Cl [Example 5-123]
ABUTH [1]; [22]
  Pre-emergence action against ABUTH (herbicidal activity): 100%
ABUTH [1]; dosage 20 g/ha, scored visually after 3 weeks vs untreated controls, 100% = plants have died, 0% = like control plants
  Pre-emergence action against ABUTH (herbicidal activity in percent): 100%
ALOMY [2]; [22]
  Pre-emergence action against ALOMY (herbicidal activity): 80%
AMARE [3]; 20 g/ha, scored visually after 3 weeks vs untreated controls, 100% = plants have died, 0% = like control plants
  Pre-emergence action against AMARE in %: 100%
AMARE [3]; [22]
  Pre-emergence action against AMARE in %: 100%
ECHCG [5]; 20 g/ha
  Pre-emergence action against ECHCG in %: 90%
ECHCG [5]; 80 g/ha
  Pre-emergence action against ECHCG in %: 100%
POLCO
  Pre-emergence action against POLCO in %: 80%
SETVI [7]; dosage 80 g/ha
  Pre-emergence action against SETVI in %: 100%
STEME [16]; dosage 20 g/ha
  Pre-emergence action against STEME in %: 90%
STEME [16]; dosage 80 g/ha
  Pre-emergence action against STEME in %: 90%
VIOTR [8]; dosage 20 g/ha
  Pre-emergence action against VIOTR in %: 90%
VIOTR [8]; dosage 80 g/ha
  Pre-emergence action against VIOTR in %: 100%
DIGSA [17]; dosage 20 g/ha
  Pre-emergence action against DIGSA in %: 100%
DIGSA [17]; dosage 80 g/ha
  Pre-emergence action against DIGSA in %: 100%
ABUTH [9]; dosage 5 g/ha
  Post-emergence action against ABUTH in %: 90%
ABUTH [9]; dosage 20 g/ha
  Post-emergence action against ABUTH in %: 90%
ALOMY [10]; dosage 20 g/ha
  Post-emergence action against ALOMY in %: 80%
AMARE [11]
  Post-emergence action at 20 g/ha against AMARE in %: 90%
AVEFA [12]
  Post-emergence action at 20 g/ha against AVEFA in %: 80%
ECHCG [13]; dosage 5 g/ha
  Post-emergence action against ECHCG in %: 90%
ECHCG [13]; dosage 20 g/ha
  Post-emergence action against ECHCG in %: 90%
LOLRI
  Post-emergence action against LOLRI in %: 80%
MATIN [18]
  Post-emergence action against MATIN in %: 80%
PHBPU
  Post-emergence action against PHBPU in %: 80%
SETVI [14]; dosage 5 g/ha
  Post-emergence action against SETVI in %: 80%
SETVI [14]; dosage 20 g/ha
  Post-emergence action against SETVI in %: 80%
STEME [19]; 20 g/ha
  Post-emergence action against STEME in %: 90%
STEME [19]; dosage 5 g/ha
  Post-emergence action against STEME in %: 90%
VIOTR [15]; 5 g/ha
  Post-emergence action against VIOTR in %: 80%
VIOTR [15]; 20 g/ha
  Post-emergence action against VIOTR in %: 90%
DIGSA [20]; 5 g/ha
  Post-emergence action against DIGSA in %: 90%
DIGSA [20]; 20 g/ha
  Post-emergence action against DIGSA: 90%
